Experimental data from US8741889B2, “Method of treating non-small cell lung cancer and colon cancer with gamma-secretase inhibitor” (Hoffmann-La Roche Inc, priority 2008, dated 2014).

Key:
[1] = system: MiaPaca2 human pancreatic carcinoma xenografts; test: Antitumor efficacy in MiaPaca2 pancreatic xenografts in nude mice; format: in vivo; conditions: 60 mg/kg ip q3d, day 37
Description: Female (athymic nu/nu) nude mice were obtained from Charles River Laboratories (Wilmington, Mass.), while female SCID-beige mice were purchased from Taconic (Germantown, N.Y.). Mice were used when they were approximately 8-12 weeks old (nudes) or 8-10 weeks old (SCID-beige), and weighed approximately 23-25 grams. The health of all animals was determined daily by gross observation of experimental animals and by the analyses of blood samples of sentinel animals that were housed on the shared shelf racks. All animals were allowed to acclimate and recover from any shipping related stress for a minimum of 72 hours prior to experimental use. Autoclaved water and irradiated food [5058-ms Pico chow (mouse) Purina, Richmond, Ind.] were provided ad libitum, and the animals were maintained on a 12 hour light and dark cycle. Cages, bedding and water bottles were autoclaved before use and were changed weekly. MiaPaca2, AsPC1 and BxPC3 human pancreatic carcinoma cells were purchased from ATCC (Manassas, Va.). BxPC3 and AsPC1 cells were grown in RPMI medium and MiaPaca2 cells were grown in Dulbecco's Modified Essential Medium (DMEM). All culture media were supplemented with 10% (v/v) FBS and 1% (v/v) […]. […] SCID-biege mice were implanted se with 5×10^6 BxPC3 cells in a 1:1 mixture of matrigel:PBS in a volume of 0.2 ml per mouse in the right hind flank on May 22, 2007. […] Formulated compound and vehicle were stored at 4° C. and prepared weekly. The suspension was mixed vigorously prior to administration. Gemcitabine (Gemzar®, Eli Lilly and Company, Indianapolis, Ind., USA) was reconstituted with sterile saline to yield a stock solution of 38 mg/ml for the entire 3-4 week study. […] Nude mice implanted with MiaPaca2 or AsPC1 xenografts were randomized on day 17 and day 9 post cell implant, respectively. SCID-beige mice bearing BxPC3 xenografts were randomized 8 days post implant. […] Treatment for the MiaPaca2 study began on Feb. […] For the MiaPaca2 and AsPC1 studies, qd Compound (1) suspension or q3d gemcitabine treatment ended on day 37 post tumor cell implant, whereas for the BxPC3 study, qd Compound (1) suspension or q3d gemcitabine treatment ended on day 35 post tumor cell implant. For intermittent dosing of Compound (1) suspension in the MiaPaca2 study using the 7+/7−/7+ schedule, treatment ended on day 23, was reinitiated on day 31, and ended day 37. In the combination groups Compound (1) suspension was given sequentially with gemcitabine using the 7+/7−/7+ schedule so that Compound (1) was dosed daily only during the first and third weeks, whereas gemcitabine was dosed q3d during the second week only. Efficacy data was graphically represented as the mean tumor volume+standard error of the mean (SEM). Tumor volumes of treated groups were presented as percentages of tumor volumes of the control groups (% T/C), using the formula: 100×((T−T0)/(C−C0)), where T represented mean tumor volume of a treated group on a specific day during the experiment, T0 represented mean tumor volume of the same […] on the first day of treatment; C represented mean tumor volume of a control group on the specific day during the experiment, and C0 represented mean tumor volume of the same treated group on the first day of treatment. Tumor volume (in cubic millimeters) was calculated using the ellipsoid formula: (D×(d2))/2 where ‘D’ represents the large diameter of the tumor, and ‘d’ represents the small diameter. In some cases, tumor regression and/or percent change in tumor volume was calculated using the formula: ((T−T0)/T0)×100 where ‘T’ represents mean tumor volume of the treated group at a particular day, and ‘T0’ represents mean tumor volume of the same treated group at initiation of treatment. Statistical analysis was determined by the rank sum test and One Way Anova and a post-hoc Bonferroni t-test (SigmaStat, version 2.0, Jandel Scientific, San Francisco, Calif.). […]

[2] = system: AsPC1 human pancreatic carcinoma xenografts; test: Antitumor efficacy in AsPC1 pancreatic xenografts in nude mice; format: in vivo; conditions: 90 mg/kg ip q3d
Description: Female (athymic nu/nu) nude mice were obtained from Charles River Laboratories (Wilmington, Mass.), while female SCID-beige mice were purchased from Taconic (Germantown, N.Y.). Mice were used when they were approximately 8-12 weeks old (nudes) or 8-10 weeks old (SCID-beige), and weighed approximately 23-25 grams. The health of all animals was determined daily by gross observation of experimental animals and by the analyses of blood samples of sentinel animals that were housed on the shared shelf racks. All animals were allowed to acclimate and recover from any shipping related stress for a minimum of 72 hours prior to experimental use. Autoclaved water and irradiated food [5058-ms Pico chow (mouse) Purina, Richmond, Ind.] were provided ad libitum, and the animals were maintained on a 12 hour light and dark cycle. Cages, bedding and water bottles were autoclaved before use and were changed weekly. MiaPaca2, AsPC1 and BxPC3 human pancreatic carcinoma cells were purchased from ATCC (Manassas, Va.). BxPC3 and AsPC1 cells were grown in RPMI medium and MiaPaca2 cells were grown in Dulbecco's Modified Essential Medium (DMEM). All culture media were supplemented with 10% (v/v) FBS and 1% (v/v) […]. […] SCID-biege mice were implanted se with 5×10^6 BxPC3 cells in a 1:1 mixture of matrigel:PBS in a volume of 0.2 ml per mouse in the right hind flank on May 22, 2007. […] Formulated compound and vehicle were stored at 4° C. and prepared weekly. The suspension was mixed vigorously prior to administration. Gemcitabine (Gemzar®, Eli Lilly and Company, Indianapolis, Ind., USA) was reconstituted with sterile saline to yield a stock solution of 38 mg/ml for the entire 3-4 week study. […] Nude mice implanted with MiaPaca2 or AsPC1 xenografts were randomized on day 17 and day 9 post cell implant, respectively. SCID-beige mice bearing BxPC3 xenografts were randomized 8 days post implant. […] Treatment for the MiaPaca2 study began on Feb. […] For the MiaPaca2 and AsPC1 studies, qd Compound (1) suspension or q3d gemcitabine treatment ended on day 37 post tumor cell implant, whereas for the BxPC3 study, qd Compound (1) suspension or q3d gemcitabine treatment ended on day 35 post tumor cell implant. For intermittent dosing of Compound (1) suspension in the AsPC1 study using the 7+/7− schedule×2 cycles, treatment ended on day 15, was reinitiated on day 23, and finally ended day 29. For intermittent dosing using the 3+/4− schedule×4 cycles, treatment ended on day 11, was reinitiated on day 16, ended day 18, was reinitiated on day 23, ended day 25, was reinitiated day 30, and finally ended on day 32. In the first combination group, daily Compound (1) was given simultaneously with q3d gemcitabine for a total of four weeks. For the remaining combination groups, Compound (1) and gemcitabine were given sequentially rather than simultaneously. In group 8 gemcitabine was dosed q3d during the 1st and 3rd weeks, whereas Compound (1) was given daily during the 2nd and 4th weeks only. In group 9, the order of compound dosing was reversed, with Compound (1) suspension given daily during the 1st and 3rd weeks, whereas gemcitabine was given q3d during the 2nd and 4th weeks. In group 10, gemcitabine was dosed q3d during the 1st and 2nd weeks, whereas Compound (1) was given daily during the 3rd and 4th weeks. In group 11, the order of compound dosing was reversed, with Compound (1) given daily during the 1st and 2nd weeks, and gemcitabine dosed q3d for the 3rd and 4th weeks. […]

Nc1ccn([C@@H]2O[C@H](CO)[C@@H](O)C2(F)F)c(=O)n1 [gemcitabine, Gemcitabine, reference compound]
% TGI [1]: 62% | % TGI [2]: 39%
